Measured values: patent US20260354377A1, “INSECTICIDAL AND ARACHNIDICIDAL COMPOSITIONS AND USES THEREOF” (priority 2023, published 2026)
Entries after “also recorded” stand apart in the source; their conditions may differ.

Legend:
Blata orientalis [1] = assay: Evaluation of insecticidal effect of individual components (Example 9); assay type: in vivo, Oriental cockroach; conditions: 0.3 grams on back, pairs; for Alive: weight %: caprylic acid 0.8, Miglyol 0.2, Tween 80 0.015, lecithin 0.15, DPPG 0.12, xanthan gum 0.0075; for Dead: caprylic acid 0.8, Emulsion Table 1 5.0 weight %
Protocol: In order to evaluate the effect of individual components, the higher concentration of each was used, these are marked with an asterisk as presented in Table 9
The cockroach Blata orientalis was used as described in Example 1 part 3 because of its size, ease of application and predictable response to the formulation.
Pairs of insects were treated by applying 0.3 grams (ml) of test items from Table 9 above directly onto their backs following which individual insects were placed in separate plastic containers and observed over a period of one hour and overnight. A 5% aqueous dispersion of the emulsion from Table 1 and sterile distilled water were used as controls.

[2] = Stability of aqueous dispersions of components; assay type: physicochemical; conditions: laboratory homogeniser dispersion in water
lice = conditions: approved by FDA as a 1% solution; cited from earlier work
[3] = Solubility and solution properties; conditions: for solubility: water or oil
Protocol: An aqueous dispersion of de-lipidised lecithin and DPPG is prepared by blending the component with water at the desired concentration and allowing at least one hour to fully hydrate.
Both of these are water soluble and may be added to the water phase of either the emulsion concentrate or the diluted suspension.

Blata orientalis [4] = assay: Efficacy of Permethrin delivered in reduced fatty acid Reactive Emulsion, spray (Example 12); assay type: in vivo, Oriental Cockroach; conditions: emulsion concentrates diluted to 5% in water, where present, 0.1%
Protocol: Permethrin was added to the oil phase at 2 grams in 20 of total oil (oil phase) which is 2% of the concentrated reactive emulsion. For use in the test the concentrate was diluted to 5% in water, that is 1% oil phase containing 0.1% Permethrin (10% of recommended dose).
A Reactive Emulsion control was prepared using the formulation in Table 13 by replacing Permethrin with Miglyol at 15% and free fatty acid at 5%.
(§1) The Oriental Cockroach Blata Orientalis was used to evaluate the efficacy of the non-reactive emulsion and the experimental design was the same as in Example 1. Individual insects were lifted with tweezers and sprayed with either non-reactive test formulation, positive control or water blank, ten insects in each case, and evaluated after 1 hour and 10 hours.

hematophagous insects = conditions: cited from earlier work
Blata orientalis [5] = assay: Efficacy of NAC and PCA supplemented Reactive Emulsions, spray (Example 13); assay type: in vivo, Oriental Cockroach; conditions: 50 mM citrate buffer, NAC or PCA 0.1%, emulsion 5% where present; for Alive / Immobile / Moribund: ten insects
Protocol: In one embodiment of the present invention, Reactive Emulsions of this invention are acidic and are kept at or below pH 5.5 to retain reactivity. For this reason 0.1% W/W solutions of NAC and PCA were prepared in 50 mM sodium citrate buffer at pH 5.0 and reduced fatty acid Reactive Emulsion concentrate (Table 15) was added to these at 5% by weight.
NAC and PCA controls were prepared by dissolving 0.1% of each in 50 mM sodium citrate buffer • reduced fatty acid Reactive Emulsions were used to illustrate the additive effect of NAC and PCA because the rate of activity of higher concentration fatty acid Emulsions would swamp the effect.
A 5% by weight suspension of Emulsion concentrate was prepared in 50 mM sodium citrate buffer without either NAC or PCA was prepared as a negative control and 50 mM buffer on its own was used as a blank.
as §1, with “the NAC and PCA supplemented reactive” for “the non-reactive”, “either NAC or PCA supplemented” for “either non-reactive”, “test formulations, negative” for “test formulation, positive”, “or buffer” for “or water”

Row | Compound | Alive (Blata orientalis [1]; 1 hour post treatment) | Alive (Blata orientalis [1]; 18 hours post treatment) | stability of aqueous dispersion [2] | solubility [3] | Alive (Blata orientalis [5]; 1 hour) | Immobile (Blata orientalis [5]; 1 hour) | Moribund (Blata orientalis [5]; 1 hour) | Mortality / efficacy (Blata orientalis [5]; 10 hours, 600 min) [%] | Alive (Blata orientalis [5]; 10 hours) | Immobile (Blata orientalis [5]; 10 hours) | Moribund (Blata orientalis [5]; 10 hours) | further results
1 | CCCCCCCCCCCCCCCC(=O)OCC(COP(=O)(O)OCC(O)CO)OC(=O)CCCCCCCCCCCCCCC (centres unmarked) [DPPG, di-palmitoyl phosphatidyl glycerol] | 2 | 2 | tendency to settle out |  |  |  |  |  |  |  |  | 
2 | CC1(C)C(C=C(Cl)Cl)C1C(=O)OCc1cccc(Oc2ccccc2)c1 (centres unmarked) [Permethrin] |  |  |  | sparingly soluble in water; also recorded: basically oil soluble |  |  |  |  |  |  |  | effectiveness against lice (lice): effective against adult lice but not their eggs; Mortality (Blata orientalis [4]; 1 hour): 0%; Alive (Blata orientalis [4]; 1 hour, ten insects): 10; Mortality / efficacy (Blata orientalis [4]; 10 hours, 600 min): 30%; Alive (Blata orientalis [4]; 10 hours, ten insects): 7; Immobile (Blata orientalis [4]; 10 hours, ten insects): 0; Moribund (Blata orientalis [4]; 10 hours, ten insects): 3
3 | CCC(C)OC(=O)N1CCCCC1CCO (centres unmarked) [Picaridin] |  |  |  |  |  |  |  |  |  |  |  | repellent effect (hematophagous insects): broad spectrum effects combined with low toxicity
4 | CCCCCCCC(=O)O [Caprylic acid] | 2 | 1 | co-acervate and settle out within minutes of being formed |  |  |  |  |  |  |  |  | Dead (Blata orientalis [1]; 18 hours post treatment): 1; Dead (Blata orientalis [1]; 18 hours post treatment, listed as caprylic acid): one
5 | CC(=O)N[C@@H](CS)C(=O)O [N-acetyl Cysteine, N-Acetyl Cysteine] |  |  |  | water soluble | 10 | 0 | 0 | 10 | 9 | 1 | 0 | Mortality / efficacy (Blata orientalis [5]; 1 hour, 60 min): 0%; Mortality / efficacy (Blata orientalis [5]; 1 hour, listed as NAC): no effect; Mortality / efficacy (Blata orientalis [5]; 10 hours, listed as NAC, 600 min): 10%; pH in solution ([3]; in solution): slightly basic pH in solution
6 | O=C1CCC(C(=O)O)N1 (centres unmarked) [Pyrrolidone Carboxylic Acid, 2-Pyrrolidone-5-Carboxylic Acid] |  |  |  |  | 10 | 0 | 0 | 20 | 8 | 0 | 2 | Mortality / efficacy (Blata orientalis [5]; 1 hour): 0%; Mortality / efficacy (Blata orientalis [5]; 10 hours, listed as PCA, 600 min): 20%
